# In patent US8440632B2, “Protopanaxadiol-type ginsenoside compositions and uses thereof” (Raptor Therapeutics Inc., priority 2008, dated 2013):
# How the values were obtained:
# [1] = target: T1, aldehyde dehydrogenase (ALDH) (Saccharomyces cerevisiae, UniProt P46367); assay: Aldehyde dehydrogenase (ALDH) activity assay, conversion of acetaldehyde into acetic acid; format: biochemical; conditions: 5, 50 or 500 μg/mL, relative to ALDH activity in the absence of ginsenoside (FIG. 3)
# T1 construct: purchased Sigma-Aldrich A 6338
# T1 sequence (P46367 25-519): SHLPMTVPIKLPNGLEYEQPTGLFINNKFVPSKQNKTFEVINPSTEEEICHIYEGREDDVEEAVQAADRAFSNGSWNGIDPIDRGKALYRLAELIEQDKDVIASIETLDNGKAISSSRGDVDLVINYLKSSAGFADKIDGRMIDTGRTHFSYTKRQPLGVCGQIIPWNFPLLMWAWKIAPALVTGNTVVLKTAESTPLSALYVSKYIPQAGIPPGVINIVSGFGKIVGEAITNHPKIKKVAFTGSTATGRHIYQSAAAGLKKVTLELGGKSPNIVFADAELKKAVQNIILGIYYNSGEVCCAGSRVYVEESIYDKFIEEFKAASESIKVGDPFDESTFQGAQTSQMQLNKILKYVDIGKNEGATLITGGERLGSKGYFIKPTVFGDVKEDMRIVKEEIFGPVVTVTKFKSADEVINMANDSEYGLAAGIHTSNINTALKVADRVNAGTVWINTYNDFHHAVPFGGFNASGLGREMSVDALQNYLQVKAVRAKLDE
# Procedure: Stock solutions of ginsenosides Rb1, Rb2, Rc, Rd, Re and Rg1 in DMSO as described above, were prepared. ALDH was obtained from Sigma-Aldrich (product no. A 6338). Enzyme activity assays were performed in vitro according to instructions supplied by the vendor as modified by the addition of test substances, which is based on assay described in Bostian et al., Biochemical Journal 1978, 173, 773-786, the contents of which are incorporated by reference herein in their entirety. This assay measures the conversion of acetaldehyde into acetic acid via […] by ALDH catalysis.
# [2] = tested on: alcohol dehydrogenase (ADH); assay: Alcohol dehydrogenase (ADH) activity, colorimetric assay; format: biochemical; conditions: 5, 50 or 500 μg/mL, relative to ADH activity in the absence of ginsenoside (FIG. 1)
# Procedure: Ginsenosides Rb1, Rb2, Rc, Rd, Re and Rg1 were obtained from ChromaDex Inc., Irvine, Calif., USA. The ginsenosides were dissolved in DMSO to prepare a stock solution. Prior to performing an activity assay, portions of a ginsenosides stock solution were diluted in aqueous reaction buffer solution and from which samples were taken and assayed for activity.
# ADH activity was measured in a colorimetric assay as described in Gibla and Gonzalex-Durante, J. Biochem. Biophys. Methods 1993, 26, 87-93, the contents of which are incorporated by reference herein in its entirety.
Structure (SMILES),effect on ALDH activity [1],effect on ADH activity [2]
CC(C)=CCC[C@](C)(O[C@@H]1O[C@H](CO[C@@H]2O[C@@H](CO)[C@H](O)[C@H]2O)[C@@H](O)[C@H](O)[C@H]1O)[C@H]1CC[C@]2(C)[C@@H]1[C@H](O)C[C@@H]1[C@@]3(C)CC[C@H](O[C@@H]4O[C@H](CO)[C@@H](O)[C@H](O)[C@H]4O[C@@H]4O[C@H](CO)[C@@H](O)[C@H](O)[C@H]4O)C(C)(C)[C@@H]3CC[C@]12C [ginsenoside Rc],increased ALDH activity,reduced ADH activity
CC(C)=CCC[C@](C)(O[C@@H]1O[C@H](CO)[C@@H](O)[C@H](O)[C@H]1O)[C@H]1CC[C@]2(C)[C@@H]1[C@H](O)C[C@@H]1[C@@]3(C)CC[C@H](O[C@@H]4O[C@H](CO)[C@@H](O)[C@H](O)[C@H]4O[C@@H]4O[C@H](CO)[C@@H](O)[C@H](O)[C@H]4O)C(C)(C)[C@@H]3CC[C@]12C [ginsenoside Rd],increased ALDH activity,reduced ADH activity
CC(C)=CCC[C@](C)(O[C@@H]1O[C@H](CO[C@@H]2OC[C@H](O)[C@H](O)[C@H]2O)[C@@H](O)[C@H](O)[C@H]1O)[C@H]1CC[C@]2(C)[C@@H]1[C@H](O)C[C@@H]1[C@@]3(C)CC[C@H](O[C@@H]4O[C@H](CO)[C@@H](O)[C@H](O)[C@H]4O[C@@H]4O[C@H](CO)[C@@H](O)[C@H](O)[C@H]4O)C(C)(C)[C@@H]3CC[C@]12C [ginsenoside Rb2],increased ALDH activity,reduced ADH activity
CC(C)=CCC[C@](C)(O[C@@H]1O[C@H](CO[C@@H]2O[C@H](CO)[C@@H](O)[C@H](O)[C@H]2O)[C@@H](O)[C@H](O)[C@H]1O)[C@H]1CC[C@]2(C)[C@@H]1[C@H](O)C[C@@H]1[C@@]3(C)CC[C@H](O[C@@H]4O[C@H](CO)[C@@H](O)[C@H](O)[C@H]4O[C@@H]4O[C@H](CO)[C@@H](O)[C@H](O)[C@H]4O)C(C)(C)[C@@H]3CC[C@]12C [ginsenoside Rb1],increased ALDH activity,reduced ADH activity
"CC(C)=CCC[C@](C)(O[C@@H]1O[C@H](CO)[C@@H](O)[C@H](O)[C@H]1O)[C@H]1CC[C@]2(C)[C@@H]1[C@H](O)C[C@@H]1[C@@]3(C)CC[C@H](O)C(C)(C)[C@@H]3[C@@H](O[C@@H]3O[C@H](CO)[C@@H](O)[C@H](O)[C@H]3O[C@@H]3O[C@@H](C)[C@H](O)[C@@H](O)[C@H]3O)C[C@]12C [ginsenoside Re, reference compound]",did not have a significant effect on ALDH activity,did not have a significant effect on ADH activity
"CC(C)=CCC[C@](C)(O[C@@H]1O[C@H](CO)[C@@H](O)[C@H](O)[C@H]1O)[C@H]1CC[C@]2(C)[C@@H]1[C@H](O)C[C@@H]1[C@@]3(C)CC[C@H](O)C(C)(C)[C@@H]3[C@@H](O[C@@H]3O[C@H](CO)[C@@H](O)[C@H](O)[C@H]3O)C[C@]12C [ginsenoside Rg1, reference compound]",did not have a significant effect on ALDH activity,did not have a significant effect on ADH activity
